Reference: patent US20260206761A1, “HETEROARYL-TRIAZOLE COMPOUNDS AS PESTICIDES” (Bayer Aktiengesellschaft, priority 2019, published 2026)

What was measured:
Assay type in all cases: in vivo
[1] = tested on: adult engorged female ticks (Rhipicephalus microplus); assay: Rhipicephalus (Boophilus) microplus injection test; conditions: 168 h, egg deposition after 7 days, read-out: activity (efficacy: infertile eggs); for pest or weed control at 0.02 mg: application rate 20 μg/animal; for pest or weed control at 4 pg: application rate 4 pg/animal
Experimental: Rhipicephalus (Boophilus) microplus—Injection Test
Solvent: dimethyl sulfoxide
To produce a suitable preparation of active compound, 10 mg of active compound are dissolved in 0.5 mL solvent, and the concentrate is diluted with solvent to the desired concentration.
Five adult engorged female ticks (Rhipicephalus microplus) are injected with 1 μL compound solution into the abdomen. The ticks are transferred into replica plates and incubated in a climate chamber.
After 7 days egg deposition of fertile eggs is monitored. Eggs where fertility is not visible are stored in a climate chamber till hatching after about 42 days. An efficacy of 100% means all eggs are infertile; 0% means all eggs are fertile.

[2] = tested on: larvae of the banded cucumber beetle (Diabrotica balteata); assay: Diabrotica balteata spray test; conditions: 168 h, after 7 days, read-out: activity (efficacy: seedlings grown); for pest or weed control at 500 g/ha: application rate 500 g/ha (=160 pg/well); for pest or weed control at 100 g/ha: application rate 100 g/ha (=32 pg/well)
Experimental: Diabrotica balteata—spray test
Solvent: 78.0 parts by weight of acetone • • 1.5 parts by weight of dimethylformamide
(§1) Emulsifier: alkylarylpolyglycol ether
(§2) To produce a suitable preparation of active compound, 1 part by weight of active compound is mixed with the stated amount of solvent, and the concentrate is diluted with water, containing an emulsifier concentration of 1000 ppm, to the desired concentration. Further test concentrations are prepared by dilution with emulsifier containing water.
Soaked wheat seeds (Triticum aestivum) are placed in a multiple well plate filled with agar and some water and are incubated for 1 day to germinate (5 seeds per well). The germinated wheat seeds are sprayed with a test solution containing the desired concentration of the active ingredient. Afterwards each unit is infected with 10-20 larvae of the banded cucumber beetle (Diabrotica balteata).
After 7 days efficacy in % is determined. 100% means all the seedlings have grown up like in the untreated, uninfected control; 0% means none of the seedlings have grown.

[3] = tested on: Rhipicephalus microplus larvae (strain Parkhurst, resistant against synthetic pyrethroids); assay: Rhipicephalus (Boophilus) microplus in-vitro contact test, larval cattle tick; conditions: after 48 hours, read-out: activity (efficacy: larvae dead or moribund); for pest or weed control at 100 g/ha: application rate 1 pg/cm^2 (=100 g/ha); for pest or weed control at 500 g/ha: application rate 5 pg/cm^2 (=500 g/ha)
Experimental: Rhipicephalus (Boophilus) microplus—In-Vitro Contact Tests Larval Cattle Tick (Strain Parkhurst. Resistant Against Synthetic Pyrethroids)
(§3) 9 mg compound is solved in 1 mL acetone and diluted with acetone to the desired concentration. 250 μL of the test solution is filled in 25 mL glass test tubes and homogeneously distributed on the inner walls by rotation and tilting on a shaking device (2 h at 30 rpm). With a compound concentration of 900 ppm, an inner surface of 44.7 cm^2 and a homogeneous distribution, a dose of 5 μg/cm^2 is achieved.
After the solvent has evaporated, each test tube is filled with 20-50 cattle tick larvae (Rhipicephalus microplus), closed with a perforated lid and incubated in a horizontal position at 85% relative humidity and 27° C. in an incubator. After 48 hours efficacy is determined. The larvae are patted on the ground of the tubes and negative geotactic behaviour is recorded.
An efficacy of 100% means all larvae are dead or moribund; 0% means no larvae are dead or moribund.

[4] = tested on: fall armyworm larvae (Spodoptera frugiperda); assay: Spodoptera frugiperda spray test; conditions: 168 h, read-out: activity (mortality)
Experimental: Spodoptera frugiperda—Spray Test
Solvent: 78.0 parts by weight acetone • 1.5 parts by weight dimethylformamide
as §1
as §2, with “solvents” for “solvent,”, “and” for “and the concentrate”
Maize (Zea mays) leaf sections are sprayed with a preparation of the active ingredient of the desired concentration. Once dry, the leaf sections are infested with fall armyworm larvae (Spodoptera frugiperda).
After 7 days mortality in % is determined. 100% means all caterpillars have been killed and 0% means none of the caterpillars have been killed.

[5] = tested on: adult brown dog ticks (Rhipicephalus sanguineus); assay: Rhipicephalus sanguineus in-vitro contact test, adult brown dog ticks; conditions: after 48 hours, read-out: activity (efficacy: ticks dead or moribund)
Experimental: Rhipicephalus sanguineus—In-Vitro Contact Tests with Adult Brown Dog Ticks
as §3
After the solvent has evaporated, each test tube is filled with 5-10 adult brown dog ticks (Rhipicephalus sanguineus), closed with a perforated lid and incubated in a lying position at room temperature and relative humidity. After 48 hours efficacy is determined. The ticks are patted on the ground of the tubes and are incubated on a heating plate at 45-50° C. for at most 5 minutes. Immotile or uncoordinated moving ticks, which are not able to escape the heat by climbing upwards, are marked as dead or moribund.
An efficacy of 100% means all ticks are dead or moribund; 0% means no ticks are dead or moribund.

[6] = tested on: green peach aphid (Myzus persicae); assay: Myzus persicae oral test; conditions: 120 h, application rate 4 ppm, after 5 days
Experimental: Solvent: 100 parts by weight acetone
To produce a suitable preparation of active compound, 1 part by weight of active compound is mixed with the stated amount of solvent, and the concentrate is diluted with water to the desired concentration.
50 μL compound solution is filled in microtiter plates and 150 μL IPL41 insect medium (33%+15% sugar) is added to obtain a total volume of 200 μL per well. Afterwards the plates are sealed with parafilm through which a mixed population of the green peach aphid (Myzus persicae) can suck on the compound preparation.
After 5 days mortality in % is determined. 100% means all aphids have been killed and 0% means none of the aphids have been killed.

Compound | pest or weed control at 0.02 mg [1] [%] | pest or weed control at 100 g/ha [3] [%] | pest or weed control at 500 g/ha [3] [%] | pest or weed control at 4 pg [1] [%] | mortality at 100 g/ha [4] [%] | pest or weed control at 100 g/ha [2] [%] | mortality at 4 ppm [6] [%] | further results
CCOc1nc([C@H](C)NC(=O)c2csc(Cl)c2)n(-c2ccc(C#N)cn2)n1 [I-10] | 80 |  |  |  |  |  |  | pest or weed control at 500 g/ha [2]: 100%
CC(C)Oc1nc([C@H](C)NC(=O)c2cc(Cl)cc(S(C)(=O)=O)c2)n(-c2ccc(C#N)cn2)n1 [I-11] | 100 | 90 | 80 | 100 | 100 |  |  | pest or weed control at 500 g/ha [2]: 80%; mortality at 500 g/ha [4]: 83%
CC(C)Oc1nc([C@H](C)NC(=O)c2csc(Cl)c2)n(-c2ccc(C#N)cn2)n1 [I-12] | 80 |  |  |  |  |  |  | 
CC(C)S(=O)(=O)c1cc(Cl)cc(C(=O)N[C@@H](C)c2nc(C3CC3)nn2-c2ccc(C#N)cn2)c1 [I-14] | 100 | 100 | 100 | 100 |  |  |  | pest or weed control at 100 g/ha ([5]; application rate 1 pg/cm^2 (=100 g/ha)): 80%; pest or weed control at 5 µg/cm2, 500 g/ha ([5]; application rate 5 μg/cm^2 (=500 g/ha)): 80%
C[C@H](NC(=O)c1cc(OC(F)(F)F)cc(C2CC2)c1)c1nc(C2CC2)nn1-c1ccc(C#N)cn1 [I-37] |  | 100 | 100 | 100 |  | 100 |  | 
C[C@H](NC(=O)c1cc(Cl)cc(S(=O)(=O)C(F)(F)F)c1)c1nc(C2CC2)nn1-c1ccc(C#N)cn1 [I-40] |  | 100 | 100 | 100 | 100 | 100 |  | 
CC(NC(=O)c1cc(C(F)(F)F)n(C)n1)c1nc(I)nn1-c1ncccn1 (centres unmarked) [I-42] |  | 100 | 100 |  |  | 100 |  | 
COc1nc([C@H](C)NC(=O)c2cc(OC(F)(F)F)cc(C3CC3)c2)n(-c2ccc(Cl)cn2)n1 [I-46] |  |  |  |  |  | 100 |  | 
C[C@H](NC(=O)c1cc(C2CC2)cc(S(C)(=O)=O)c1)c1nc(C2CC2)nn1-c1ccc(C#N)cn1 [I-49] |  | 100 | 100 |  | 100 |  | 100 | 
CC(NC(=O)c1cc(Br)cc(C2(C(F)(F)F)CC2)c1)c1nc(Cl)nn1-c1ccc(C#N)cn1 (centres unmarked) [I-50] |  | 80 | 90 |  |  |  |  | 
COc1nc([C@H](C)NC(=O)c2cc(Cl)cc(S(=O)(=O)C(F)F)c2)n(-c2ccc(Cl)cn2)n1 [I-53] |  |  |  |  | 100 | 100 | 100 | 
COc1nc([C@H](C)NC(=O)c2cc(Cl)cc(S(=O)(=O)C(F)(F)F)c2)n(-c2ccc(C#N)cn2)n1 [I-54] |  | 100 | 100 |  | 100 |  | 100 | 
COc1nc([C@H](C)NC(=O)c2cc(Cl)cc(S(=O)(=O)C(F)F)c2)n(-c2ccc(C#N)cn2)n1 [I-55] |  | 100 | 100 |  | 100 | 100 | 100 | 
